Laboratory results: US20230331779A1, “BISPECIFIC FUSION POLYPEPTIDE COMPOUND” (SHAANXI MICOT TECHNOLOGY CO., LTD., priority 2020, published 2023)
Where two headings read alike, the source gives them in different places.

Key:
[1] = Plasma PTH in 5/6 nephrectomy rats (secondary hyperparathyroidism model); format: in vivo, rat; settings: 3.0 mg/kg s.c. three times a week
Method: Male SD rats were divided into a sham operation group and a 5/6 nephrectomy group (5/6Nx). Rats in the nephrectomy group underwent 5/6 nephrectomy, and were fed with high-phosphorus diet for two weeks after the operation to accelerate the induction of the secondary hyperparathyroidism rat model. After being fed with high-phosphorus diet for 3 weeks, the model rats were randomly divided into 6 groups, a 5/6Nx group (Vehicle), a positive control drug etelcalcetide group (3.0 mg/kg) and 4 groups of the compound of Example 1 (0.5, 1.0, 2.0, 4.0 mg/kg). The rats were administered subcutaneously three times a week for 6 consecutive weeks. Before the first administration, after the first administration, and 4 hours after administration in the 2nd, 4th, and 6th week, blood samples were collected from rats, and the plasma and serum were separated for the detection of the content of PTH in the plasma at each time point.

[2] = Cortical bone porosity in adenine-gavage SHPT rats (Micro CT of femur); format: in vivo, rat; settings: 3.0 mg/kg s.c. three times a week for six weeks, Mean ± SEM
Method: According to the Yokozawz method, SD rats were given adenine gavage to establish an animal model of chronic renal failure, and fed with a high-phosphorus diet to induce a model of secondary hyperparathyroidism. Rats were fed until the end of the experiment, and model rats were screened according to the content of PTH in plasma. According to the PTH content and body weight, the model rats were randomly divided into 5 groups: a normal saline group, an etelcalcetide (3.0 mg/kg, dissolved in normal saline) group, 3 groups of Example 1 (1.0 mg/kg, 2.0 mg/kg and 4.0 mg/kg, dissolved in normal saline), and subcutaneously administered three times a week for six consecutive weeks at 1.0 ml/kg per rat. Six weeks later, the left femur of the rat was taken, the muscle and connective tissue were removed, and the femur was placed in a 4% formalin solution. Micro CT scanning was performed 24 hours later, and data was subjected analysis.

[3] = system: osteoblast MC3T3-E1 Subclone 4 cells; test: CyQUANT in vitro proliferation of osteoblast cells; format: cell-based; settings: FIG. 1; Example 1 effect more pronounced than that of OGP
Method: (§1) The CyQUANT cell proliferation detection kit was used to determine the in vitro proliferation effect of the polypeptide of Example 1 on osteoblast MC3T3-E1 Subclone 4 and fibroblast NIH/3T3 cells. Osteogenic growth peptide (OGP) was used as a positive control in the experiment. The polypeptide of Example 1 and OGP were prepared to the following concentrations: 10^−8 mol/L, 10^−9 mol/L, 10^−10 mol/L, 10^−11 mol/L, 10^−12 mol/L, 10^−13 mol/L, 10^−14 mol/L, 10^−15 mol/L and 10^−16 mol/L. 100 μL of medium was discarded from each well of the cell plate to be tested, and 100 μL of 2×CyQuant detection reagent was added to each well. The plate was then placed in a 37° C., 5% CO2 incubator for 60 min. Fluorescence values were read in bottom-reading mode with excitation and emission wavelengths of 480/535 nm.
(§2) % relative to Control=(reading value of compound well−reading value of blank control well)/(reading value of base control well−reading value of blank control well)×100

fibroblast NIH/3T3 cells = test: CyQUANT in vitro proliferation of fibroblast cells; format: cell-based; settings: FIG. 1; comparable effective dose for Example 1 and OGP
Method: as §1, §2

[4] = Effect of single intravenous injection on blood calcium in normal rats; format: in vivo, rat; settings: for blood calcium level after a single intravenous bolus injection: normal SD rats
Method: (§3) Test method: SPF grade SD rats, weighing 250-280 g, were randomly divided into 7 groups, 6 administration groups and 1 blank control group (Vehicle=normal saline). The test samples were prepared into a solution with normal saline for administration. The test compound was administered by a single tail vein injection (1 mL/kg) at a dose of 0.5 mg/kg, 1.5 mg/kg and 4.5 mg/kg, respectively. Serum calcium (mmol/L) and phosphorus levels (mmol/L) were measured at 0 hour and at 4, 8 and 16 hours after administration.
(§4) Data processing: The concentrations of PTH, calcium and phosphorus in each group and at each time point were statistically analyzed using the graphpad 6.0 software.

[5] = Effect of single intravenous injection on blood phosphorus in normal rats; format: in vivo, rat; settings: for blood phosphorus level after a single intravenous bolus injection: normal SD rats
Method: as §3, §4

[6] = target: T1, calcium-sensing receptor (CASR) (Homo sapiens, UniProt P41180); test: CaSR activation, HTRF IP-1 competition method in HEK293-CaSR cells; format: cell-based
T1 construct: expressed in transfected cells; host or cells: HEK293-CaSR cells
T1 sequence (P41180 20-1078): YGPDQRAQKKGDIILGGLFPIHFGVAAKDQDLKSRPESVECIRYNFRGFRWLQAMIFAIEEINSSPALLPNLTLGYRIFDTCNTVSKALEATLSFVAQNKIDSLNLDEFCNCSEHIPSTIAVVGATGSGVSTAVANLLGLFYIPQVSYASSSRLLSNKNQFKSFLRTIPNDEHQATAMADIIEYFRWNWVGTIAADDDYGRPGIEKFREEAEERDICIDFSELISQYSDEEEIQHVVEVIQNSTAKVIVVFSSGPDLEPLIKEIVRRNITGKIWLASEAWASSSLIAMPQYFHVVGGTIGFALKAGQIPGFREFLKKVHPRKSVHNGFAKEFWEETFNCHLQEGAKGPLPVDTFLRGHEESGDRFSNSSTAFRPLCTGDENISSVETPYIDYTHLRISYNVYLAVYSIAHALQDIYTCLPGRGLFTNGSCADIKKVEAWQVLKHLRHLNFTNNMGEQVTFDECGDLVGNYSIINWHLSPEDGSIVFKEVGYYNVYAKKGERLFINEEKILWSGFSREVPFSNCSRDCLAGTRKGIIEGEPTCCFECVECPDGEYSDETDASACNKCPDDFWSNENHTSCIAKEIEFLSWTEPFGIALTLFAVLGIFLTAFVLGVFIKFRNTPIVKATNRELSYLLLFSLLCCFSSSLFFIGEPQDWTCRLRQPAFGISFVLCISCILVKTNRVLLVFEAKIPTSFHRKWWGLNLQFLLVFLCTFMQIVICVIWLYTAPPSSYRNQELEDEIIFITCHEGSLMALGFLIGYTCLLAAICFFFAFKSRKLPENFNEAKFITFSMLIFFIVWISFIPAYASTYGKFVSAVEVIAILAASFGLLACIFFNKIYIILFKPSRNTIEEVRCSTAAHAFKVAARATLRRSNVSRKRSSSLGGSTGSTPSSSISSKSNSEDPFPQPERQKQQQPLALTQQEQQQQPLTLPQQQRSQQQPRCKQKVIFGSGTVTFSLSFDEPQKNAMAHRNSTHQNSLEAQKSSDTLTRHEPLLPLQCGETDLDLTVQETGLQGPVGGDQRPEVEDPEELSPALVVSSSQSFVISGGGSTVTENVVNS
Text: In the CaSR activation experiment, the Homogeneous Time-Resolved Fluorescence (HTRF) IP-1 (myolnositol 1 phosphate) competition method was used to detect the effect of the polypeptide of Example 1 on CaSR.

[7] = 0.5 mg/kg i.v., 0 h (before administration)
[8] = 1.5 mg/kg i.v., 0 h (before administration)
[9] = 4.5 mg/kg i.v., 0 h (before administration)

With `CC(=O)N[C@H](CSSC[C@H](N)C(=O)O)C(=O)N[C@H](C)C(=O)N[C@H](CCCNC(=N)N)C(=O)N[C@H](CCCNC(=N)N)C(=O)N[C@H](CCCNC(=N)N)C(=O)N[C@H](C)C(=O)N[C@H](CCCNC(=N)N)C(N)=O` [Etelcalcetide, etelcalcetide] the “PTH change in plasma 4 h after administration” value (shortened to “PTH change in plasma 4 h”) ([1]; 2 weeks) was −95.57 ± 0.28%, the “PTH change in plasma 4 h” value ([1]; 4 weeks) was −93.81 ± 0.59% and the “PTH change in plasma 4 h” value ([1]; 6 weeks) was −92.63 ± 0.77%. For the same compound, the “PTH change in plasma 4 h” value ([1]; first administration) was −92.03 ± 0.67% and the Cortical bone porosity [2] was 4.13 ± 2.27%.
In the case of Osteogenic growth peptide [OGP], the “concentration that significantly stimulated proliferation of osteoblast MC3T3-E1 Subclone 4 cells” value [3] is reported as 10^−8 to 10^−16 M and the “concentration that significantly stimulates proliferation of fibroblast NIH3T3 cells (effective dose)” value (fibroblast NIH/3T3 cells) is reported as 10^−8 M.
For “Example 2: Ac-D-Cys-D-Ala-D-Arg-D-Arg-D-Arg-D-Ala-D-Arg-NH2 linked by disulfide bond to H-D-Tyr-D-Arg-D-Phe-Gly-Gly-L-Cys-OH (CARRRAR; D-amino acids, Ac, NH2, disulfide-linked second peptide; MOD_RES (1)..(7) Cys, Ala and Arg are D-amino acids; MOD_RES (1)..(1) Cys is acetylated; MOD_RES (7)..(7) Arg is amidated; BINDING (1)..(1) Cys is linked ot Cys in SEQ ID NO 6 via disulfide bond)”, the “blood calcium level after a single intravenous bolus injection” value [4, 7] was 2.42 ± 0.02 mmol/L, the “blood calcium level after a single intravenous bolus injection” value ([4]; 0.5 mg/kg i.v., 4 h) was 2.05 ± 0.04 mmol/L and the “blood calcium level after a single intravenous bolus injection” value ([4]; 0.5 mg/kg i.v., 8 h) was 2.20 ± 0.02 mmol/L. The “blood calcium level after a single intravenous bolus injection” value ([4]; 0.5 mg/kg i.v., 16 h) was 2.27 ± 0.01 mmol/L, the “blood calcium level after a single intravenous bolus injection” value [4, 8] was 2.41 ± 0.06 mmol/L and the “blood calcium level after a single intravenous bolus injection” value ([4]; 1.5 mg/kg i.v., 4 h) was 2.02 ± 0.06 mmol/L. For the same compound, the “blood calcium level after a single intravenous bolus injection” value ([4]; 1.5 mg/kg i.v., 8 h) was 1.84 ± 0.04 mmol/L, the “blood calcium level after a single intravenous bolus injection” value ([4]; 1.5 mg/kg i.v., 16 h) was 2.10 ± 0.03 mmol/L and the “blood calcium level after a single intravenous bolus injection” value [4, 9] was 2.45 ± 0.02 mmol/L. For the same compound, the “blood calcium level after a single intravenous bolus injection” value ([4]; 4.5 mg/kg i.v., 4 h) was 1.79 ± 0.03 mmol/L, the “blood calcium level after a single intravenous bolus injection” value ([4]; 4.5 mg/kg i.v., 8 h) was 1.53 ± 0.03 mmol/L and the “blood calcium level after a single intravenous bolus injection” value ([4]; 4.5 mg/kg i.v., 16 h) was 1.64 ± 0.17 mmol/L. The “blood calcium levels compared with the concentration before administration (in words)” value ([4]; normal rats, single tail vein bolus injection, each administration group, P≤0.01) was “decreased significantly”, the “time at which serum phosphorus level reached the highest” value ([5]; high-dose group (4.5 mg/kg)) was 8 h and the “time at which serum phosphorus level reached the highest” value ([5]; low-dose group (0.5 mg/kg and 1.5 mg/kg)) was 4 h. For the same compound, the “blood phosphorus level after a single intravenous bolus injection” value (from here on “blood phosphorus level”) [5, 7] was 2.70 ± 0.06 mmol/L, the “blood phosphorus level” value ([5]; 0.5 mg/kg i.v., 4 h) was 2.78 ± 0.14 mmol/L and the “blood phosphorus level” value ([5]; 0.5 mg/kg i.v., 8 h) was 2.67 ± 0.06 mmol/L. The “blood phosphorus level” value ([5]; 0.5 mg/kg i.v., 16 h) was 2.49 ± 0.08 mmol/L, the “blood phosphorus level” value [5, 8] was 2.65 ± 0.08 mmol/L and the “blood phosphorus level” value ([5]; 1.5 mg/kg i.v., 4 h) was 3.04 ± 0.08 mmol/L. The “blood phosphorus level” value ([5]; 1.5 mg/kg i.v., 8 h) was 3.05 ± 0.08 mmol/L, the “blood phosphorus level” value ([5]; 1.5 mg/kg i.v., 16 h) was 2.47 ± 0.06 mmol/L and the “blood phosphorus level” value [5, 9] was 2.63 ± 0.02 mmol/L. The “blood phosphorus level” value ([5]; 4.5 mg/kg i.v., 4 h) was 3.31 ± 0.08 mmol/L, the “blood phosphorus level” value ([5]; 4.5 mg/kg i.v., 8 h) was 3.67 ± 0.1 mmol/L and the “blood phosphorus level” value ([5]; 4.5 mg/kg i.v., 16 h) was 2.49 ± 0.06 mmol/L. For the same compound, the “effect on blood phosphorus concentration (in words)” value ([5]; normal rats, single tail vein bolus injection) was “increasing the blood phosphorus concentration”.
With `CC(=O)N[C@H](CSSC[C@H](NC(=O)CNC(=O)CNC(=O)[C@@H](Cc1ccccc1)NC(=O)C(C)(C)NC(=O)[C@H](N)Cc1ccc(O)cc1)C(=O)O)C(=O)N[C@H](C)C(=O)N[C@H](CCCNC(=N)N)C(=O)N[C@H](CCCNC(=N)N)C(=O)N[C@H](CCCNC(=N)N)C(=O)N[C@H](C)C(=O)N[C@H](CCCNC(=N)N)C(N)=O` [Example 1] the EC50 ([6]; Ca2+ concentration of 1.2 mM, read-out: EC50, agonistic activity on HEK293-CaSR cells) was 84.7 µM and the EC50 ([6]; in the absence of Ca2+, read-out: EC50, agonist activity on HEK293-CaSR cells) was 980 µM.
